Assay results from ChEMBL document CHEMBL5321200, “Discovery of the GSH responsive "Y-PROTACs" targeting ALK and CDK4/6 as a potential treatment for cancer” (Eur J Med Chem, 2023).
Activity calls are given as the source filed them. No cut-off for these calls is given here.

Legend:
NCI-H3122 [1] = assay: Antiproliferative activity against human NCI-H3122 cells assessed as inhibition of cell growth incubated for 3 to 5 days by MTT assay; assay type: functional, cell-based
NCI-H3122 [2] = assay: Induction of apoptosis in human NCI-H3122 cells assessed as necrotic cells at 2.5 uM incubated for 48 hrs by Annexin V-FITC/propidium iodide staining based flow cytometric analysis (reference value: 3.53%); assay type: functional
NCI-H3122 [3] = assay: Induction of apoptosis in human NCI-H3122 cells assessed as late apoptotic cells at 1.25 uM incubated for 48 hrs by Annexin V-FITC/propidium iodide staining based flow cytometric analysis (reference value: 1.73%); assay type: functional
[4] = biological target: Protein cereblon/Cyclin-dependent kinase 6 (Homo sapiens) (UniProt Q00534+Q96SW2); assay: PROTAC activity at CRBN/CDK6 in human NCI-H3122 cells assessed as reduction in CDK6 protein level at 1 uM incubated for 24 hrs by Western blot analysis; assay type: cell-based
Sequence of Protein cereblon/Cyclin-dependent kinase 6 (Homo sapiens) (Q00534 whole entry, looked up): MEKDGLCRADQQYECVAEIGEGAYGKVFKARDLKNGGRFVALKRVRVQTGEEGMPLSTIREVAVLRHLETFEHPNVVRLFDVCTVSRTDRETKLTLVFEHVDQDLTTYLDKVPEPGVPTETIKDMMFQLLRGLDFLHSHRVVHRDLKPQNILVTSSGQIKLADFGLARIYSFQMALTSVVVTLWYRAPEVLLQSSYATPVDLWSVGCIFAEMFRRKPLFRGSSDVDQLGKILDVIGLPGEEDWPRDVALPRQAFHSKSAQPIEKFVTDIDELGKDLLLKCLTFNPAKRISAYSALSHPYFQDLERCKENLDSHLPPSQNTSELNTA
Sequence of Protein cereblon/Cyclin-dependent kinase 6 (Homo sapiens) (Q96SW2 whole entry, looked up): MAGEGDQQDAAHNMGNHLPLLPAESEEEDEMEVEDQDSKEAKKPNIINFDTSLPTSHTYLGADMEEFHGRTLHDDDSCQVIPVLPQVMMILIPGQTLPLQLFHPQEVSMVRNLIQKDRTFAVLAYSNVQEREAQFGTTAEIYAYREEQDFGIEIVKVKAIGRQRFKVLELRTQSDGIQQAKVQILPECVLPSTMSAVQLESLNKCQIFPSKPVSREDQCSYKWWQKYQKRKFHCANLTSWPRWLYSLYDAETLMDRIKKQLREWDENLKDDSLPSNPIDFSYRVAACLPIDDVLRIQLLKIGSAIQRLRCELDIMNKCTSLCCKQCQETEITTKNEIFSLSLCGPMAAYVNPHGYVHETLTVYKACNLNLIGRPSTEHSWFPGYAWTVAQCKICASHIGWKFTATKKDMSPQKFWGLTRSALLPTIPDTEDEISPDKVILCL

NCI-H3122 [5] = assay: Induction of apoptosis in human NCI-H3122 cells assessed as early apoptotic cells at 2.5 uM incubated for 48 hrs by Annexin V-FITC/propidium iodide staining based flow cytometric analysis (reference value: 0.50%); assay type: functional
[6] = Cytotoxicity against human L02 cells assessed as inhibition of cell growth incubated for 3 to 5 days by MTT assay; assay type: toxicity, cell-based
NCI-H3122 [7] = assay: Induction of apoptosis in human NCI-H3122 cells assessed as early apoptotic cells at 0.312 uM incubated for 48 hrs by Annexin V-FITC/propidium iodide staining based flow cytometric analysis (reference value: 0.50%); assay type: functional
NCI-H3122 [8] = assay: Induction of apoptosis in human NCI-H3122 cells assessed as necrotic cells at 0.312 uM incubated for 48 hrs by Annexin V-FITC/propidium iodide staining based flow cytometric analysis (reference value: 3.53%); assay type: functional
NCI-H3122 [9] = assay: Cell cycle arrest in human NCI-H3122 cells assessed as accumulation of cells at G2/M phase at 2.5 uM incubated for 24 hrs by propidium iodide staining based flow cytometric analysis (reference value: 18.55%); assay type: functional
NCI-H3122 [10] = assay: Cell cycle arrest in human NCI-H3122 cells assessed as accumulation of cells at G2/M phase at 1.25 uM incubated for 24 hrs by propidium iodide staining based flow cytometric analysis (reference value: 18.55%); assay type: functional
NCI-H2228 [11] = assay: Antiproliferative activity against human NCI-H2228 cells assessed as inhibition of cell growth incubated for 3 to 5 days by MTT assay; assay type: functional, cell-based
NCI-H3122 [12] = assay: Cell cycle arrest in human NCI-H3122 cells assessed as accumulation of cells at S phase at 0.625 uM incubated for 24 hrs by propidium iodide staining based flow cytometric analysis (reference value: 34.86%); assay type: functional
NCI-H3122 [13] = assay: Cell cycle arrest in human NCI-H3122 cells assessed as accumulation of cells at S phase at 0.312 uM incubated for 24 hrs by propidium iodide staining based flow cytometric analysis (reference value: 34.86%); assay type: functional
NCI-H3122 [14] = assay: Cell cycle arrest in human NCI-H3122 cells assessed as accumulation of cells at S phase at 2.5 uM incubated for 24 hrs by propidium iodide staining based flow cytometric analysis (reference value: 34.86%); assay type: functional
NCI-H3122 [15] = assay: Cell cycle arrest in human NCI-H3122 cells assessed as accumulation of cells at G0/G1 phase at 0.312 uM incubated for 24 hrs by propidium iodide staining based flow cytometric analysis (reference value: 45.91%); assay type: functional
NCI-H1299 [16] = assay: Antiproliferative activity against human NCI-H1299 cells assessed as inhibition of cell growth incubated for 3 to 5 days by MTT assay; assay type: functional, cell-based
NCI-H3122 [17] = assay: Induction of apoptosis in human NCI-H3122 cells assessed as necrotic cells at 1.25 uM incubated for 48 hrs by Annexin V-FITC/propidium iodide staining based flow cytometric analysis (reference value: 3.53%); assay type: functional
NCI-H2228 [18] = assay: Antiproliferative activity against human NCI-H2228 cells assessed as inhibition of cell growth pretreated with GSH followed by compound addition and incubated for 3 to 5 days by MTT assay; assay type: functional, cell-based
NCI-H3122 [19] = assay: Induction of apoptosis in human NCI-H3122 cells assessed as viable cells at 1.25 uM incubated for 48 hrs by Annexin V-FITC/propidium iodide staining based flow cytometric analysis (reference value: 94.19%); assay type: functional; settings: read-out: Activity
NCI-H3122 [20] = assay: Antiproliferative activity against human NCI-H3122 cells assessed as inhibition of cell growth pretreated with GSH followed by compound addition and incubated for 3 to 5 days by MTT assay; assay type: functional, cell-based
NCI-H3122 [21] = assay: Cell cycle arrest in human NCI-H3122 cells assessed as accumulation of cells at G0/G1 phase at 0.625 uM incubated for 24 hrs by propidium iodide staining based flow cytometric analysis (reference value: 45.91%); assay type: functional
NCI-H3122 [22] = assay: Cell cycle arrest in human NCI-H3122 cells assessed as accumulation of cells at G2/M phase at 0.312 uM incubated for 24 hrs by propidium iodide staining based flow cytometric analysis (reference value: 18.55%); assay type: functional
NCI-H3122 [23] = assay: Induction of apoptosis in human NCI-H3122 cells assessed as viable cells at 0.625 uM incubated for 48 hrs by Annexin V-FITC/propidium iodide staining based flow cytometric analysis (reference value: 94.19%); assay type: functional; settings: read-out: Activity
NCI-H3122 [24] = assay: Induction of apoptosis in human NCI-H3122 cells assessed as total apoptotic cells at 2.5 uM incubated for 48 hrs by Annexin V-FITC/propidium iodide staining based flow cytometric analysis relative to control; assay type: functional
NCI-H3122 [25] = assay: Cell cycle arrest in human NCI-H3122 cells assessed as accumulation of cells at G0/G1 phase at 1.25 uM incubated for 24 hrs by propidium iodide staining based flow cytometric analysis (reference value: 45.91%); assay type: functional
NCI-H3122 [26] = assay: Cell cycle arrest in human NCI-H3122 cells assessed as accumulation of cells at G2/M phase at 0.625 uM incubated for 24 hrs by propidium iodide staining based flow cytometric analysis (reference value: 18.55%); assay type: functional
NCI-H3122 [27] = assay: Cell cycle arrest in human NCI-H3122 cells assessed as accumulation of cells at S phase at 1.25 uM incubated for 24 hrs by propidium iodide staining based flow cytometric analysis (reference value: 34.86%); assay type: functional
NCI-H3122 [28] = assay: Induction of apoptosis in human NCI-H3122 cells assessed as late apoptotic cells at 2.5 uM incubated for 48 hrs by Annexin V-FITC/propidium iodide staining based flow cytometric analysis (reference value: 1.73%); assay type: functional
NCI-H3122 [29] = assay: Induction of apoptosis in human NCI-H3122 cells assessed as late apoptotic cells at 0.625 uM incubated for 48 hrs by Annexin V-FITC/propidium iodide staining based flow cytometric analysis (reference value: 1.73%); assay type: functional
[30] = Cytotoxicity against human L02 cells assessed as inhibition of cell growth pretreated with GSH followed by compound addition and incubated for 3 to 5 days by MTT assay; assay type: toxicity, cell-based
NCI-H3122 [31] = assay: Induction of apoptosis in human NCI-H3122 cells assessed as necrotic cells at 0.625 uM incubated for 48 hrs by Annexin V-FITC/propidium iodide staining based flow cytometric analysis (reference value: 3.53%); assay type: functional
NCI-H1299 [32] = assay: Antiproliferative activity against human NCI-H1299 cells assessed as inhibition of cell growth pretreated with GSH followed by compound addition and incubated for 3 to 5 days by MTT assay; assay type: functional, cell-based
NCI-H3122 [33] = assay: Induction of apoptosis in human NCI-H3122 cells assessed as early apoptotic cells at 0.625 uM incubated for 48 hrs by Annexin V-FITC/propidium iodide staining based flow cytometric analysis (reference value: 0.50%); assay type: functional
NCI-H3122 [34] = assay: Induction of apoptosis in human NCI-H3122 cells assessed as late apoptotic cells at 0.312 uM incubated for 48 hrs by Annexin V-FITC/propidium iodide staining based flow cytometric analysis (reference value: 1.73%); assay type: functional
NCI-H3122 [35] = assay: Induction of apoptosis in human NCI-H3122 cells assessed as viable cells at 2.5 uM incubated for 48 hrs by Annexin V-FITC/propidium iodide staining based flow cytometric analysis (reference value: 94.19%); assay type: functional; settings: read-out: Activity
NCI-H3122 [36] = assay: Induction of apoptosis in human NCI-H3122 cells assessed as viable cells at 0.312 uM incubated for 48 hrs by Annexin V-FITC/propidium iodide staining based flow cytometric analysis (reference value: 94.19%); assay type: functional; settings: read-out: Activity
NCI-H3122 [37] = assay: Cell cycle arrest in human NCI-H3122 cells assessed as accumulation of cells at G0/G1 phase at 2.5 uM incubated for 24 hrs by propidium iodide staining based flow cytometric analysis (reference value: 45.91%); assay type: functional
NCI-H3122 [38] = assay: Induction of apoptosis in human NCI-H3122 cells assessed as early apoptotic cells at 1.25 uM incubated for 48 hrs by Annexin V-FITC/propidium iodide staining based flow cytometric analysis (reference value: 0.50%); assay type: functional

Cc1cc(Nc2ncc(Cl)c(Nc3ccccc3S(=O)(=O)C(C)C)n2)c(OC(C)C)cc1C1CCNCC1 [CERITINIB]
IC50 (NCI-H3122 [1]): 60 nM | Activity (NCI-H3122 [2]): 1.93% | Activity (NCI-H3122 [3]): 6.24% | Activity [4]: inactive | Activity (NCI-H3122 [5]): 3.86% | IC50 [6]: 3510 nM | Activity (NCI-H3122 [7]): 0.91% | Activity (NCI-H3122 [8]): 4.19% | Activity (NCI-H3122 [9]): 24.08% | Activity (NCI-H3122 [10]): 28.18% | IC50 (NCI-H2228 [11]): 580 nM | Activity (NCI-H3122 [12]): 14.15% | Activity (NCI-H3122 [13]): 12.62% | Activity (NCI-H3122 [14]): 14.93% | Activity (NCI-H3122 [15]): 52.82% | IC50 (NCI-H1299 [16]): 1740 nM | Activity (NCI-H3122 [17]): 4.45% | IC50 (NCI-H2228 [18]): 590 nM | viability at 1.25 µM (NCI-H3122 [19]): 87.3% | IC50 (NCI-H3122 [20]): 60 nM | Activity (NCI-H3122 [21]): 57.79% | Activity (NCI-H3122 [22]): 33.92% | viability at 0.625 µM (NCI-H3122 [23]): 88.1% | Activity (NCI-H3122 [24]): 10.8% | Activity (NCI-H3122 [25]): 55.92% | Activity (NCI-H3122 [26]): 27.27% | Activity (NCI-H3122 [27]): 15.21% | Activity (NCI-H3122 [28]): 6.94% | Activity (NCI-H3122 [29]): 5.87% | IC50 [30]: 1030 nM | Activity (NCI-H3122 [31]): 4.19% | IC50 (NCI-H1299 [32]): 1620 nM | Activity (NCI-H3122 [33]): 1.88% | Activity (NCI-H3122 [34]): 3.61% | viability at 2.5 µM (NCI-H3122 [35]): 87.4% | viability at 0.312 µM (NCI-H3122 [36]): 91.3% | Activity (NCI-H3122 [37]): 60.69% | Activity (NCI-H3122 [38]): 1.99%
